Values quoted from earlier work, collected in the CATMoS acute toxicity set (Mansouri et al. 2021).
Values joined by “and” are separate entries in the source; they are usually repeats but may differ in a detail not shown here. Equal values may be shown once.

Assay: rat acute oral toxicity
Details: in vivo

| Compound | LD50 |
| --- | --- |
| CC(C)(C)C(=O)C(Oc1ccc(Cl)cc1)n1ccnc1 (centres undefined) | 400 mg/kg |
| O=C1C=Cc2cc(Br)ccc2C1=O | 3900 mg/kg |
| Nc1ccc(C(F)(F)F)cc1 | 128 mg/kg |
| CCCN=C(C(OCC)c1ccccc1)N1CCCCCC1 (centres undefined) | 220 mg/kg |
| c1cc(CC2CO2)cc(CC2CO2)c1 (centres undefined) | 4190 mg/kg |
| CC(=O)C=Cc1ccco1 | 325 mg/kg |
| Cc1cc(=O)[nH]c(=O)[nH]1 | 64500 mg/kg |
| C=CCOCCO | 3050 mg/kg |
| C=CC(=O)OCCN=C=O | 200 mg/kg |
| CC1(C)C(=O)[C@@]2(C)CC[C@@H]1C2 | 6160 mg/kg |
| CC(C)(C)C(=O)COc1ccc(Cl)cc1 | 4650 mg/kg |
| CCOP(=O)(OCC)SCn1nc(C)oc1=O | 1 mg/kg |
| CCc1ccc(C(=O)C(C)CN2CCCCC2)cc1 (centres undefined) | 1000 mg/kg |
| CN(C)CCN(Cc1ccc(Cl)cc1)c1ccccn1 | 920 mg/kg |
| O=C1CSc2ncccc2N1 | 1050 mg/kg |
| CCCCCCCC(=O)Oc1c(I)cc(C#N)cc1I | 190 mg/kg |
| CCOC(=O)Nc1ccco1 | 1980 mg/kg |
| CCOP(=S)(OCC)Oc1ccc2c3c(c(=O)oc2c1)CCCC3 | 67 mg/kg |
| C=CCOC(=O)CCCCCCC | 570 mg/kg |
| Cc1ccccc1O | 1860 mg/kg |
| Cc1ccc(N=c2sccn2C)c(C)c1 | 725 mg/kg |
| CC(C)CCCC(C)NN (centres undefined) | 108 mg/kg |
| CC(C(=O)O)c1ccc(CC2CCCC2=O)cc1 (centres undefined) | 145 mg/kg |
| CC(C)Oc1ccccc1[N+](=O)[O-] | 2500 mg/kg |
| O=c1ccc(=O)[nH][nH]1 | 10800 mg/kg |

| Compound | LD50 |
| --- | --- |
| OCCC1CCCCC1 | 940 mg/kg |
| O=C(C=CC(=O)OCCCl)OCCCl | 71 mg/kg |
| CC=CC(C)=O | 3200 mg/kg |
| Cc1cc(OCC(=O)N[C@@H]2C(=O)N3[C@@H]2SC(C)(C)[C@@H]3C(=O)O)ccc1Cl | 4000 mg/kg |
| CNCCCC12CC(c3ccccc31)c1ccccc12 | 1320 mg/kg |
| CCCCOC(=O)/C=C\C(=O)OCCCC | 3700 mg/kg |
| COCCOC(=O)CCCCCCCCC(=O)OCCOC | 4970 mg/kg |
| CNC(=O)C(Cl)C(C)=O (centres undefined) | 700 mg/kg |
| C=CC(=O)OC(C)(C)C | 1050 mg/kg |
| CCN(CC)C(=O)CCC(C)=O | 4760 mg/kg |
| CCN(CC)Cc1cc(-c2ccccc2)ccc1O | 28 mg/kg |
| Clc1ccc(C(OCCN2CCOCC2)c2ccccc2)cc1 (centres undefined) | 710 mg/kg |
| O=C(c1cc(O)c(O)c(O)c1)c1ccc(O)c(O)c1O | 1420 mg/kg |
| CC(=O)OC1CC2(O)C(CCC3(C)C(c4ccc(=O)oc4)CCC32O)C2(C)CCC(O)C=C12 (centres undefined) | 4.2 mg/kg |
| ClCc1cc(Cl)cc(Cl)c1 | 1080 mg/kg |
| C#CCN(C)c1ccccc1OC(=O)NC | 60 mg/kg |
| C/N=N/Nc1ccc([N+](=O)[O-])cc1 | 468 mg/kg |
| CCOP(=S)(OCC)SC1CCC2C=CCC1S2 (centres undefined) | 140 mg/kg |
| Cc1c(N(C)C)c(=O)n(-c2ccccc2)n1C | 285 mg/kg |
| COc1ccc2c(=O)c(C)c(-c3ccccc3)oc2c1CN(C)C | 40 mg/kg and 14 mg/kg |
| NC(=S)Nc1ccc(Cl)cc1 | 15 mg/kg |
| CC(C)=CCCC(C)CCOC=O (centres undefined) | 8400 mg/kg |
| O=C(O)c1ccccc1C(=O)O | 7900 mg/kg |
| CCCn1c2ccccc2c2cc(N)ccc21 | 423 mg/kg |
| CCCC(C)OP(=S)(OC)OC (centres undefined) | 311 mg/kg |

| Compound | LD50 |
| --- | --- |
| CCCP(=O)(CCC)CCC | 1410 mg/kg |
| Oc1c(Cl)c(Cl)cc2[nH]c(C(F)(F)F)nc12 | 52 mg/kg |
| O=CC(Cl)CCl (centres undefined) | 160 mg/kg |
| O=C(Cl)c1ccc([N+](=O)[O-])cc1 | 5600 mg/kg |
| O=C(O)CCCCCCCl | 1800 mg/kg |
| Oc1cc2nc(C(F)(F)F)[nH]c2cc1Cl | 55.5 mg/kg |
| CC(O)CN(CC(C)O)c1nc(Nc2ccc(C=Cc3ccc(Nc4nc(Nc5cc(S(=O)(=O)O)ccc5S(=O)(=O)O)nc(N(CC(C)O)CC(C)O)n4)cc3S(=O)(=O)O)c(S(=O)(=O)O)c2)nc(Nc2cc(S(=O)(=O)O)ccc2S(=O)(=O)O)n1 (centres undefined) | 12100 mg/kg |
| CN(C)/N=N/c1ccc(C(N)=O)cc1 | 54 mg/kg |
| O=C1c2cc(Cl)ccc2OC2CCON12 (centres undefined) | 1550 mg/kg |
| COc1cc(NS(=O)(=O)c2ccc(N)cc2)ncn1 | 5620 mg/kg |
| CCO[Si](C)(C)OCC | 9280 mg/kg |
| O=C(NN=C1SCCS1)c1ccccc1 | 72.8 mg/kg |
| Cn1c2ccccc2c2cc(N)ccc21 | 347 mg/kg |
| CNC(=O)Oc1ccc(NC(=O)OC)c(C(C)C)c1 | 27 mg/kg |
| CC(C)CCO | 1300 mg/kg |
| O=c1c2nocc2c(-c2ccccc2)nn1-c1ccccc1 | 1000 mg/kg |
| CC(C)C(=O)OCCc1ccccc1 | 5200 mg/kg |
| C=CCN(CC=C)c1c(C)cc(OC(=O)NC)cc1C | 89 mg/kg |
| CCCC1C2C=CC(C2)C1C=O (centres undefined) | 4600 mg/kg |
| CCCC(C)C(=O)O (centres undefined) | 2040 mg/kg |
| Cl[C@H]1[C@H](Cl)[C@@H](Cl)[C@H](Cl)[C@H](Cl)[C@H]1Cl (racemic) | 177 mg/kg |
| CC(C)c1ccc2ccccc2c1C(C)C | 15200 mg/kg |
| NC(=O)Cc1c([O-])on[n+]1Cc1ccccc1 | 4450 mg/kg |
| COc1ccc2c(c1)c(CC(=O)OC/C=C(\C)CC/C=C(\C)CCC=C(C)C)c(C)n2C(=O)c1ccc(Cl)cc1 | 1680 mg/kg |
